Like-named read-outs stand apart in the source and are kept apart here. Where a SMILES comes first, the peptide text is derived from it. Where no end group is shown, it is not given here.
How the values were obtained:
α-glucosidase [1] = conditions: cited from earlier work; for α-glucosidase activity inhibition: peptides from Spanish dry-cured ham
Excerpt: Since these peptides have small molecular weights, they are more likely to be absorbed intact by the gastrointestinal tract after oral ingestion, thereby exerting systemic or local effects. Consequently, the study of bioactive peptides has progressively emerged as a prominent research area in recent years. Numerous studies have dem ... || α-glucosidase is a membrane-associated enzyme. Inhibition of α-glucosidase activity can reduce carbohydrate hydrolysis, thus reducing sugar absorption and effectively controlling diabetes.. […] In the study on rice wine peptides, the α-glucosidase inhi ... || Due to the fact that α-glucosidase is a more important and directly regulated target in the treatment of diabetes, the potential inhibitory activity of α-glucosidase was used as the main condition of inquiry for further analysis. […] Therefore, this peptide was selected as a positive control to facilitate the analysis of the current study, and its affinity grading after molecular docking with α-glucosidase was −9.1 kcal/mol. Four peptides, YPLPR, AFEPLR, NDPF, and WN ... || (+ 1 further places)

HepG2 cells [2] = conditions: cited from earlier work; for Glucose consumption in HepG2 cells compared to the model group: walnut-derived peptides; for Insulin resistance in HepG2 cells exposed to high glucose: from goat milk casein hydrolysate
Excerpt: In this study, the effect of YPLPR, AFEPLR, and NDPF on the glucose consumption of HepG2 cells in an insulin resistance state was investigated. […] The glucose consumption of peptides YPLPR, AFEPLR, and NDPF were 9.56 (9.37, 9.83), 10.56 ...

HepG2 cells [3] = assay: MTT cytotoxicity of samples and insulin in HepG2 cells
Excerpt: (§1) The MTT method was adopted to assess the impact of samples and insulin on cell viability, helping determine the optimal concentrations of insulin and the samples. The experimental protocol for improving insulin resistance followed previous methods. Details are provided in the Supplementary Materials. In this experiment, various groups were established, incorporating the blank control group (K), model group (M), peptide sample groups, and the positive control group (treated with rosiglitazone).
(§2) […] of the main pathogenic mechanisms of type 2 diabetes mellitus, and the liver is an important site for insulin to function. […] As the cellular insulin resistance condition arises, the utilization of glucose by the cells decreases, and the consumption of glucose decreases. Therefore, insulin resistance is usually expressed by the consumption of glucose in studies. Using the MTT method, this study explored the effect of different concentrations of insulin on cellular glucose consumption after 24 h of action with HepG2 cells.

HepG2 cells [4] = assay: Effect of insulin concentration on glucose consumption of HepG2 cells; assay type: cell-based, human; conditions: insulin 25.0 µmol/L, 24 h
Excerpt: Details are provided in the Supplementary Materials.

HepG2 cells [5] = assay: Glucose consumption of insulin-resistant HepG2 cells; assay type: cell-based, human; conditions: 20.0 µmol/L positive control, 24 h, after 25.0 µmol/L insulin 24 h; median (25%, 75% quartiles), n = 6; model group M 6.08 (5.80, 6.81) mmol/L
Excerpt: as §1, §2

HepG2 cells [6] = assay: H2O2 effect on cell viability (cell damage model); assay type: cell-based, human; conditions: H2O2 1.2 mmol/L; median (25%, 75% quartiles), n = 4
Excerpt: Excessive ROS may attack normal cells or biological macromolecules and undergo oxidative stress, causing severe damage to cellular structures, which causes many diabetic complications and chronic diseases. Accordingly, in this study, the scavenging activities of ABTS and DPPH radicals of bioactive peptides were not only investigated by in vitro experiments, but their antioxidant activity was also further investigated at the cellular level. The cell damage rate of the H2O2-induced cell damage model was generally around 50%. […] When the concentration of H2O2 was 1.2 mmol/L, the cell viability rate was 56.38 (50.33, 68.00) %, so the concentration of H2O2 of 1.2 mmol/L established the cell damage model in this study. […] Consistent with 3.6, YPLPR, AFEPLR, and NDPF were used at 1.0 mmol/L for subsequent experiments.

α-glucosidase [7] = target: α-glucosidase (Saccharomyces cerevisiae, UniProt P53341); assay: α-glucosidase inhibitory effect (pNPG); assay type: biochemical; conditions: synthetic peptides; PBS pH 6.8, 37 °C, 15 min pre-incubation, 30 min with pNPG, absorbance 405 nm; median (25%, 75% quartiles), at least three experiments; read-out: IC50, α-glucosidase inhibition
Chain of α-glucosidase (Saccharomyces cerevisiae, UniProt P53341) (P53341 whole entry): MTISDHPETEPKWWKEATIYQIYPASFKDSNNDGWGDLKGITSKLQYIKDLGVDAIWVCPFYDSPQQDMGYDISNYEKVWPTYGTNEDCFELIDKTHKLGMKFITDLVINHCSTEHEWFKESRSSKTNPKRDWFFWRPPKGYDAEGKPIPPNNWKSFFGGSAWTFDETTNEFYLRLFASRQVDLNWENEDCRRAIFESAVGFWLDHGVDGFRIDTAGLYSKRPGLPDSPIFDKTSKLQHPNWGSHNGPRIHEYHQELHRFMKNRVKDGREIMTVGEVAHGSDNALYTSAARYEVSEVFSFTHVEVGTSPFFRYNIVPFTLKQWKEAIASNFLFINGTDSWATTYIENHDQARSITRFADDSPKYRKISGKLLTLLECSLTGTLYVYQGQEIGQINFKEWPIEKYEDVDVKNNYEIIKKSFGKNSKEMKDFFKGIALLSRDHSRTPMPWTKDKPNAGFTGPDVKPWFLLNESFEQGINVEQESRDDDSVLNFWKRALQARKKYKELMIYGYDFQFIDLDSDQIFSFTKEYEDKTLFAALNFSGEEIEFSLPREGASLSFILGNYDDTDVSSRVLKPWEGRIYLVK
Experimental: Distillers’ grains were generously supplied by the Suzhou Bridge Wine & Spirits Co. (Suzhou, China). Peptides YPLPR, AFEPLR, and NDPF (purity ≥ 98%) were composed by All Peptide Biotechnology Co., Ltd. (Hangzhou, China). Dulbecco’s Modified Eagle Medium (DMEM) medium, embracing 10.0% fetal bovine serum (FBS) and 1.0 mol/L phosphate buffer (PBS) was bought from Gibco (Life Technologies, Inc., Carlsbad, CA, USA). Alkaline protease (2.4 U/g), penicillin-streptomycin (100.0 U/mL penicillin-100.0 […] streptomycin), 3-(4,5-dimethylthiazol-2)-2,5-diphenyltetrazolium bromide (MTT) powder, 2′,7′-dichlorofluorescence yellow diacetate (DCFH-DA), and trypsin solution were purchased from Solarbio (Beijing Solarbio Science and Technology Co., Ltd., Beijing, China). The HepG2 cell line was acquired from the Kunming Institute of Animal Science, Chinese Academy of Sciences (Kunming, China). Rosiglitazone, insulin, ABTS, DPPH, α-glucosidase derived from Saccharomyces cerevisiae (type I, protein content of at least 30.0 units per milligram), and p-nitrobenzene α-D-glucopyranoside (pNPG, with a minimum purity of 99.0%) were purchased from Sigma-Aldrich (located in Shanghai, China). The glucose kit was purchased from Nanjing Jiancheng Co. (Nanjinng, China). […]
The inhibitory effect on α-glucosidase activity of the protein hydrolysates from distillers’ grains or three selected peptides was assessed following the methodology outlined by Zhang et al. (2018) with slight modifications, and the concrete method is shown in the Supplementary Materials. […]
The inhibitory effect on α-glucosidase activity of the protein hydrolysates from distillersʹ grains or three selected peptides was assessed following the methodology outlined by Zhang et al. (2018) with slight modifications. […]
The absorbance of the resulting reaction mixture was measured at a wavelength […]
of 405 nm using an enzyme-labeled instrument. […] In this formula, ʺAʺ represents the absorbance value. […]
The antioxidant properties of vinasse hydrolysates or three screening peptides were evaluated by DPPH and ABTS free radical scavenging […]

[8] = design: method as in doi:10.1016/j.jff.2016.08.021; conditions: at different concentrations (5–150 mg/mL); cited from earlier work
[9] = previously screened from rice wine peptides; no reference number printed in the sentence; read-out: IC50, ABTS radical scavenging capacity; cited from earlier work
[10] = previously screened from rice wine peptides; no reference number printed in the sentence; read-out: IC50, DPPH radical scavenging capacity; cited from earlier work
HepG2 cells [11] = assay: H2O2-induced intracellular ROS scavenging in HepG2 cells (DCFH-DA, flow cytometry); assay type: cell-based, human; conditions: VC 10.0 µmol/L 24 h, then 1.2 mmol/L H2O2 seven hours, median (25%, 75% quartiles), n = 4, model M 139.46 %, blank K 101 %
Experimental: According to Liu et al. (2020), the H2O2-induced scavenging activity of reactive oxygen species was evaluated. In this experiment, various groups were established, including the blank, sample, positive control, and model groups. Refer to the Supplementary Materials for specific information. […]
and NDPF concentrations were 1.0 mmol/L, and the positive control rosiglitazone concentration was 20.0 µmol/L. At the end of the incubation, the glucose content in the culture medium was measured using the glucose oxidase-peroxidase method kit by Nanjing Jiancheng Biological Co., Ltd., and the glucose content was calibrated by measuring the cell activity using the MTT […]
7. Evaluation of scavenging capacity against intracellular ROS
HepG2 cells (2.0 mL/well, 1×10^4 cells/well) were inoculated in 6-well plate and cultured overnight. VC (10.0 µmol/L) or peptides YPLPR, AFEPLR, and NDPF (1.0 mmol/L) were added to each well, and the cells were incubated for an additional 24 hours. Following the incubation, the culture medium was aspirated, and the cells were washed thoroughly with PBS twice. Subsequently, cells in all experimental groups, except for the control group, were exposed to 1.2 mmol/L H2O2 for seven hours. […] After incubation, the cells were rinsed twice with culture medium devoid of FBS and analyzed using a Millipore flow cytometer (Guava easy Cyte 6-2L, Billerica, MA) within 30 minutes.

[12] = peptides from malt, read-out: IC50, α-glucosidase inhibitory activity
[13] = at 1.0 mmol/mL (so in the source)
[14] = peptides from rice wine, read-out: IC50, α-glucosidase depressant activity

WLRL [WLRL peptide from soybean protein, positive control]
inhibitory effect toward α-glucosidase (α-glucosidase [1]; peptide from soybean protein): good inhibitory effect toward α-glucosidase

LRYL [walnut-derived peptide]
Glucose consumption in HepG2 cells compared to the model group (HepG2 cells [2]): increased glucose consumption

insulin: used to establish the insulin resistance model
Cytotoxicity (MTT) (HepG2 cells [3]; insulin 25.0 µmol/L): not cytotoxic | Cellular glucose consumption compared with the group without insulin (HepG2 cells [4]): significantly reduced

CN(CCOc1ccc(CC2SC(=O)NC2=O)cc1)c1ccccn1 (stereo not drawn) [rosiglitazone]
Glucose consumption (HepG2 cells [5]): 9.09 (8.29, 9.23) mmol/L

SDIPNPIGSE [peptide extracted from goat milk casein hydrolysate]
Insulin resistance in HepG2 cells exposed to high glucose (HepG2 cells [2]): improvement in insulin resistance

OO [Peptide H2O2]
Cell viability rate (HepG2 cells [6]): 56.38 (50.33, 68.00) %

LDNFR [peptide from malt]
IC50 (α-glucosidase [1]; [12]): 9.21 ± 0.22 mM

NC(=O)C[C@H](N)C(=O)N[C@@H](CC(=O)O)C(=O)N1CCC[C@H]1C(=O)N[C@@H](Cc1ccccc1)C(=O)O [NDPF] (H-NDPF-OH)
IC50 (α-glucosidase [7]): 6.24 mM | Cytotoxicity (MTT) (HepG2 cells [3]; [13]): no cytotoxicity

SSLFR [peptide from previous studies on rice wine]
IC50 (α-glucosidase [1]; [14]): 7.73 mM

AFEPLR [AFEPLR]
IC50 (α-glucosidase [7]): 8.69 mM | Cytotoxicity (MTT) (HepG2 cells [3]; [13]): no cytotoxicity

NPWDQVKR [peptide extracted from goat milk casein hydrolysate]
Insulin resistance in HepG2 cells exposed to high glucose (HepG2 cells [2]): improvement in insulin resistance

LDLQR [peptide from malt]
IC50 (α-glucosidase [1]; [12]): 8.59 ± 0.25 mM

AGGFR [peptide from malt]
IC50 (α-glucosidase [1]; [12]): 8.66 ± 0.33 mM

QEPVLGPVRGPFP [peptide extracted from goat milk casein hydrolysate]
Insulin resistance in HepG2 cells exposed to high glucose (HepG2 cells [2]): improvement in insulin resistance

LGVGG [peptide from Spanish dry-cured ham]
α-glucosidase activity inhibition (α-glucosidase [1]): effectively inhibited α-glucosidase activity

QFTPR [peptide from previous studies on rice wine]
IC50 (α-glucosidase [1]; [14]): 9.18 mM

AVPYPQ [peptide identified in the research of Pepe et al. (2016)]
antioxidant activity [8]: showed antioxidant activity

FTYPR [peptide previously screened from rice wine peptides by molecular simulation]
IC50 (α-glucosidase [1]; [14]): 3.57 mM | IC50 [9]: 2.64 mM | IC50 [10]: 6.09 mM

AEEEYPDL [peptide from Spanish dry-cured ham]
α-glucosidase activity inhibition (α-glucosidase [1]): effectively inhibited α-glucosidase activity

EAMAPK [peptide identified in the research of Pepe et al. (2016)]
antioxidant activity [8]: showed antioxidant activity

YPLPR [YPLPR]
IC50 (α-glucosidase [7]): 5.31 mM | Cytotoxicity (MTT) (HepG2 cells [3]; [13]): no cytotoxicity

O=C1O[C@H]([C@@H](O)CO)C(O)=C1O [VC]
Relative intracellular ROS content (HepG2 cells [11]): 92.03 (90.83, 98.11) %

LVRL [walnut-derived peptide]
Glucose consumption in HepG2 cells compared to the model group (HepG2 cells [2]): increased glucose consumption

VLLALVLLR [walnut-derived peptide]
Glucose consumption in HepG2 cells compared to the model group (HepG2 cells [2]): increased glucose consumption

Reference: PMC11085682, “Identification of Novel Peptides in Distillers’ Grains as Antioxidants, α-Glucosidase Inhibitors, and Insulin Sensitizers: In Silico and In Vitro Evaluation” (Nutrients, 2024)
